Data reported in patent US20090291964A1, “Potentiators of Antibacterial Activity” (priority 2003, published 2009).
Like-named read-outs stand apart in the source and are kept apart here. Marks after values point to notes of the source that are not given here.

How the values were obtained:
Type in all cases: cell-based
[1] = system: S. aureus SA-K2068 (non-NorA multidrug efflux pump overproducing); experiment: microbe, parasite or virus in culture; settings: for MIC: Staphylococcus aureus, read-out: MIC of EtBr with EPI; for Fold-reduction in MIC: gatifloxacin, S. aureus K2068 (nonNorA pump overproducer); for reduction of MIC of ciprofloxacin / reduction of MIC of gatifloxacin / reduction of MIC of levofloxacin / reduction of MIC of norfloxacin: K2068, EPIs at 4 times MEC for EtBr, A-106 at 100 μg/ml
Text: (§1) A variety of strains may be used in these experiments, including, but not limited to, S. aureus ATCC 29213, E. faecalis ATCC 29212, and S. pneumoniae, S. aureus strains SA-1199, SA-1199B, SA-8325-4, and SA-K2068. S. aureus ATCC 29213, E. faecalis ATCC 29212, and S. pneumoniae ATCC 10015 were obtained from the American Type Culture Collection (Manassas, Va.). S. aureus strains SA-1199 (clinical isolate, susceptible), SA-1199B (SA-1199, NorA overproducing, also has A116E GrlA mutation), SA-8325-4 (NCTC 8325 cured of prophages), SA-K2068 (SA-8325-4, non-NorA multidrug efflux pump overproducing mutation) were obtained from Glenn Kaatz (Kaatz et al., “Identification and characterization of a novel efflux-related multidrug resistance phenotype in Staphylococcus aureus”, J. Antimicrob. Chemother. 50:833-838 (2002); 1993; Kaatz et al., “Phenothiazines and thioxanthenes inhibit multidrug efflux pump activity in Staphylococcus aureus”, Antimicrob. Agents Chemother. 47:719-726, Kaatz et al., “Efflux-mediated fluoroquinolone resistance in Staphylococcus aureus. Antimicrob. Agents Chemother.”, 37:1086-1094, 1993)).
(§2) 3% sterile laked horse blood (Quad Five, Ryegate, Mont.) was added to assays for E. faecalis and S. Pneumoniae. A final concentration of 1% DMSO was present in all assays.
Recent more hydrophobic fluoroquinolones such as gatifloxacin and moxifloxacin are less well recognized by NorA; however, recently one other pump in S. aureus has been described which also recognizes hydrophobic fluoroquinolones (Kaatz et al. 2002, supra). To investigate the potential of A-106 and C-9 to block the efflux of several fluoroquinolones in cells with constituitively over-expressed efflux pumps, we used S. aureus strains SA-1199B and K2068 (Table 3). […] Kaatz et al., “Phenothiazines and thioxanthenes inhibit multidrug efflux pump activity in Staphylococcus aureus”, Antimicrob. Agents Chemother. 47:719-726 (2003).

[2] = system: E. faecalis ATCC 29212; experiment: MIC by NCCLS microdilution, EtBr/EPI with and without EPI; settings: for MIC: Enterococcus faecalis, ATCC29212; for intrinsic antibacterial activity of EPI: at 100 μg/ml, E. faecalis
Procedure: as §2
(§3) EtBr is a general substrate for many different efflux pumps in bacteria. Markham et al., “Multiple Novel Inhibitors of the NorA Multidrug Transporter of Staphylococcus aureus”, Antimicrob. Agents Chemother. 43:2404-2408 (1999). Since EtBr is a non-specific DNA intercalator, the only known mechanism of resistance to EtBr is via efflux. Markham et al., “Multiple Novel Inhibitors of the NorA Multidrug Transporter of Staphylococcus aureus”, Antimicrob. Agents Chemother. 43:2404-2408 (1999).

[3] = system: S. pneumoniae ATCC 10015; experiment: as above; settings: for MIC: Streptococcus pneumoniae, ATCC10015; for intrinsic antibacterial activity of EPI: at 100 μg/ml
Procedure: as §2, §3

[4] = system: E. faecalis ATCC 29212; experiment: Minimal effective concentration (MEC) of EPI for EtBr; settings: lowest amount of EPI which produces the maximum effect on the MIC of ethidium bromide
Procedure: (§4) The MEC was determined as the minimal concentration of EPI that produced the maximal reduction in substrate MIC.
(§5) The minimum effective concentration (MEC) for inhibition of EtBr efflux was determined in S. aureus, E. faecalis and S. pneumoniae for A-106 and C-9; reserpine was used as a comparator (Table 1).

[5] = system: S. aureus ATCC 29213; experiment: as above; settings: for MEC of EPI: S. aureus ATCC 29213, lowest amount of EPI which produces the maximum effect on the MIC of ethidium bromide
Procedure: as §4, §5

[6] = system: S. pneumoniae ATCC 10015; experiment: as above; settings: lowest amount of EPI which produces the maximum effect on the MIC of ethidium bromide (reserpine: maximal subinhibitory concentration)
Procedure: as §4, §5

[7] = system: S. aureus K2068; experiment: Minimal effective concentration (MEC) of EPI for gatifloxacin; settings: for MEC: S. aureus K2068 (nonNorA pump overproducer), lowest amount of EPI which produces the maximum effect on the MIC of gatifloxacin; for MEC for gatifloxacin: efflux mutant K2068
Procedure: as §4
Since any given compound may be recognized by an unknown number of efflux pumps in a particular organism, we reasoned that the MEC of A-106 and C-9 should vary for different antibiotics. Also, the MEC of A-106 and C-9 should vary with the degree of efflux expression in a given strain. […] This was confirmed with two other wild type strains, SA-8325-4 and SA-1199 (Table 3).
The MEC of A-106 and C-9 for gatifloxacin was determined in these efflux mutants. […] A similar result was obtained with efflux mutant K2068, where the MEC for A-106 was 6.25 μg/ml and the MEC for C-9 was 3.1 μg/ml. […] This may reflect that either gatifloxacin is recognized by fewer pumps than EtBr or it is a poorer efflux substrate in general. This is consistent with the finding that the activity of A-106 was non-saturable for EtBr but is saturable for gatifloxacin.

[8] = system: S. aureus SA-1199 (clinical isolate, susceptible); experiment: MIC of fluoroquinolones with and without EPI; settings: for MIC: Staphylococcus aureus, read-out: MIC of EtBr with EPI
Text: as §1, §2

[9] = system: S. aureus SA-8325-4; experiment: MIC of fluoroquinolones with and without EPI; settings: for MIC: Staphylococcus aureus
Text: as §1, §2

[10] = S. aureus K2068 (nonNorA pump overproducer) (Table 4)
[11] = S. aureus K2068, EPI at 4X the MEC for EtBr, VX-710 at 100 μg/ml
[12] = E. faecalis ATCC 29212, EPIs used at the MEC, except VX-710 at 100 μg/ml
[13] = E. faecalis ATCC 29212, EPI alone, read-out: MIC of EPI
[14] = E. faecalis ATCC 29212, EPIs used at the MEC, except VX-710 at 100 μg/ml, read-out: MIC of EtBr with EPI
[15] = S. pneumoniae ATCC 10015, EPIs used at the MEC, except VX-710 at 100 μg/ml
[16] = S. pneumoniae ATCC 10015, EPI alone, read-out: MIC of EPI
[17] = S. pneumoniae ATCC 10015, EPIs used at the MEC, except VX-710 at 100 μg/ml, read-out: MIC of EtBr with EPI
[18] = S. aureus SA-1199, EPI at 4X the MEC for EtBr, VX-710 at 100 μg/ml
[19] = S. aureus SA-8325-4, EPI at 4X the MEC for EtBr, VX-710 at 100 μg/ml

## COC(=O)[C@H]1[C@H]2C[C@@H]3c4[nH]c5cc(OC)ccc5c4CCN3C[C@H]2C[C@@H](OC(=O)c2cc(OC)c(OC)c(OC)c2)[C@@H]1OC [reserpine, reference compound]
[1]; [10]
  MIC of gatifloxacin with EPI: 0.25 µg/mL
[1]; [11]
  MIC of ciprofloxacin with EPI: 0.5 µg/mL
  MIC of gatifloxacin with EPI: 0.25 µg/mL
  MIC of gentamicin with EPI: 0.063 µg/mL
  MIC of levofloxacin with EPI: 0.5 µg/mL
  MIC of norfloxacin with EPI: 1 µg/mL
[1]
  MIC: 1.6 µg/mL
  Fold-reduction in MIC: 4
[2]; [12]
  Fold-reduction in EtBr MIC: 8
[2]; [13]
  MIC: > 100 µg/mL
[2]; [14]
  MIC: 0.8 µg/mL
[3]; [15]
  Fold-reduction in EtBr MIC: 50
[3]; S. pneumoniae, reserpine 25 μg/ml (maximal subinhibitory concentration)
  reduction in the MIC of EtBr: 50 fold
[3]; [16]
  MIC: 50 µg/mL
[3]; [17]
  MIC: 0.04 µg/mL
[3]; S. pneumoniae, read-out: MIC of EPI alone
  MIC: 50 µg/mL
[4]
  MEC of EPI: ≧100 μg/ml
[5]
  MEC of EPI: 6.3 µg/mL
[6]
  MEC of EPI: 25^c μg/ml
[7]
  MEC: 3.1 µg/mL
[8]; [18]
  MIC of ciprofloxacin with EPI: 0.063 µg/mL
  MIC of gatifloxacin with EPI: 0.063 µg/mL
  MIC of gentamicin with EPI: 0.125 µg/mL
  MIC of levofloxacin with EPI: 0.125 µg/mL
  MIC of norfloxacin with EPI: 0.125 µg/mL
  MIC: 0.4 µg/mL
[9]; [19]
  MIC of ciprofloxacin with EPI: 0.125 µg/mL
  MIC of gatifloxacin with EPI: 0.125 µg/mL
  MIC of gentamicin with EPI: 0.063 µg/mL
  MIC of levofloxacin with EPI: 0.25 µg/mL
  MIC of norfloxacin with EPI: 0.25 µg/mL
[9]; SA83254, S. aureus SA-8325-4, EPI at 4X the MEC for EtBr, VX-710 at 100 μg/ml, read-out: MIC of EtBr with EPI
  MIC: 0.4 µg/mL

## COc1cc(C(=O)C(=O)N2CCCC[C@H]2C(=O)OC(CCCc2cccnc2)CCCc2cccnc2)cc(OC)c1OC [A-106]
[1]
  reduction of MIC of ciprofloxacin: 4 fold
  reduction of MIC of gatifloxacin: 2 fold
  reduction of MIC of levofloxacin: 2 fold
  reduction of MIC of norfloxacin: 2 fold
  Fold-reduction in MIC: 4
[1]; [10]
  MIC of gatifloxacin with EPI: 0.25 µg/mL
[1]; [11]
  MIC of EtBr with EPI: 0.4 µg/mL
  MIC of ciprofloxacin with EPI: 0.5 µg/mL
  MIC of gatifloxacin with EPI: 0.25 µg/mL
  MIC of gentamicin with EPI: 0.063 µg/mL
  MIC of levofloxacin with EPI: 0.5 µg/mL
  MIC of norfloxacin with EPI: 1 µg/mL
[2]; E. faecalis ATCC 29212, EPI alone
  MIC of EPI: >100 µg/mL
[2]; [12]
  Fold-reduction in EtBr MIC: 8
  MIC of EtBr with EPI: 0.8 µg/mL
[2]
  intrinsic antibacterial activity of EPI: no intrinsic antibacterial activity
[3]; S. pneumoniae ATCC 10015, EPI alone
  MIC of EPI: >100 µg/mL
[3]; [15]
  Fold-reduction in EtBr MIC: ≧16
  MIC of EtBr with EPI: ≦0.125 μg/ml
[3]; S. pneumoniae
  intrinsic antibacterial activity of EPI: no intrinsic antibacterial activity
[4]
  MEC of EPI: ≧100 μg/ml
[5]; ATCC 29213, Table 1
  MEC for EtBr efflux: ≤ 100 µg/mL
[5]
  MEC of EPI: ≧100 μg/ml
[6]
  MEC of EPI: ≧100 μg/ml
[7]
  MEC: 6.25 µg/mL
  MEC for gatifloxacin: 6.25 µg/mL
[8]; [18]
  MIC of EtBr with EPI: 0.2 µg/mL
  MIC of ciprofloxacin with EPI: 0.063 µg/mL
  MIC of gatifloxacin with EPI: 0.063 µg/mL
  MIC of gentamicin with EPI: 0.125 µg/mL
  MIC of levofloxacin with EPI: 0.125 µg/mL
  MIC of norfloxacin with EPI: 0.125 µg/mL
[9]; [19]
  MIC of EtBr with EPI: <0.1 µg/mL
  MIC of ciprofloxacin with EPI: 0.125 µg/mL
  MIC of gatifloxacin with EPI: 0.125 µg/mL
  MIC of gentamicin with EPI: 0.063 µg/mL
  MIC of levofloxacin with EPI: 0.25 µg/mL
  MIC of norfloxacin with EPI: 0.25 µg/mL

## COc1cc(C(=O)C(=O)N(C)[C@@H](Cc2ccc(Cl)cc2)C(=O)N(Cc2ccccc2)C(CCc2ccncc2)CCc2ccncc2)cc(OC)c1OC [C-9, (S)—N-Benzyl-2-(methyl-(2-oxo-2-(3,4,5-trimethoxyphenyl)acetyl)amino)-3-(4-chloro-phenyl)-N-(3-pyridin-4-yl-1-(2-pyridin-4-yl-ethyl)propyl)propionamide]
[1]
  reduction of MIC of ciprofloxacin: 8 fold
  reduction of MIC of gatifloxacin: 4 fold
  reduction of MIC of levofloxacin: 2 fold
  reduction of MIC of norfloxacin: 8 fold
  MIC: 3.1 µg/mL
  Fold-reduction in MIC: 2
[1]; [10]
  MIC of gatifloxacin with EPI: 0.5 µg/mL
[1]; [11]
  MIC of ciprofloxacin with EPI: 1 µg/mL
  MIC of gatifloxacin with EPI: 0.5 µg/mL
  MIC of gentamicin with EPI: 0.063 µg/mL
  MIC of levofloxacin with EPI: 0.5 µg/mL
  MIC of norfloxacin with EPI: 4 µg/mL
[2]; [12]
  Fold-reduction in EtBr MIC: 2
[2]; [13]
  MIC: > 100 µg/mL
[2]; [14]
  MIC: 3.1 µg/mL
[2]
  intrinsic antibacterial activity of EPI: no intrinsic antibacterial activity
[3]; [15]
  Fold-reduction in EtBr MIC: 2
[3]; [16]
  MIC: > 100 µg/mL
[3]; [17]
  MIC: 1 µg/mL
[3]; S. pneumoniae
  intrinsic antibacterial activity of EPI: no intrinsic antibacterial activity
[4]
  MEC of EPI: 6.3 µg/mL
[5]
  MEC of EPI: 1.6 µg/mL
[6]
  MEC of EPI: 12.5 µg/mL
[7]
  MEC: 3.1 µg/mL
  MEC for gatifloxacin: 3.1 µg/mL
[8]; [18]
  MIC of ciprofloxacin with EPI: 0.125 µg/mL
  MIC of gatifloxacin with EPI: 0.063 µg/mL
  MIC of gentamicin with EPI: 0.125 µg/mL
  MIC of levofloxacin with EPI: 0.125 µg/mL
  MIC of norfloxacin with EPI: 0.25 µg/mL
[8]
  MIC: 1.6 µg/mL
[9]; [19]
  MIC of ciprofloxacin with EPI: 0.125 µg/mL
  MIC of gatifloxacin with EPI: 0.125 µg/mL
  MIC of gentamicin with EPI: 0.063 µg/mL
  MIC of levofloxacin with EPI: 0.25 µg/mL
  MIC of norfloxacin with EPI: 0.25 µg/mL
[9]; SA83254, read-out: MIC of EtBr with EPI
  MIC: 0.8 µg/mL
